# Laboratory results: patent publication US12274775B2, “Fatty acid esters as anti-Malassezia agents” (SYMRISE AG, priority 2019, dated 2025)
# Where two headings read alike, the source gives them in different places.
# Assays:
# Assay in all cases: Agar dilution test on mDixon agar, minimal inhibitory concentration (MIC)
# Type in all cases: cell-based
# [1] = system: M. globosa; conditions: agar dilution, pH 5.5, 32° C., up to 14 days; for MIC: Malassezia globosa, read-out: Minimal inhibitory concentration (MIC)
# Method: (§1) The fatty acid esters and their mixtures were tested for growth inhibition against Malassezia. The following reference strains were included:
# (§2) Tests were performed on solid media using agar dilution tests. Stock solutions of test substances were prepared in mDixon-Agar (cf. Table 2). Lower test concentrations were obtained by diluting stock solutions with fresh agar.
# (§3) Preparation of liquid agar was carried out in temperated water bath. Required amounts of test substances were weighed in 130 ml of Dixon Agar and mixed with fresh Dixon-Agar to reach desired concentrations of test substances. Agar solutions with test substances were then poured into 24 well-plates. The pH value in all assays was maintained at 5.5. Preparation of test substances was done on weight per volume base. All results are expressed in parts per million (1 ppm=0.0001%).
# (§4) Briefly, Malassezia strains were cultivated on selective agar for pathogenic fungi (Merck) and overlaid with a thin layer of cold-sterilized olive oil. […] Incubation was carried out at 32° C. over a maximal duration of 14 days with regular inspection and documentation of growth status. Minimal inhibitory concentrations (MICs) were determined as the lowest concentrations of test compound without visible growth. Each experiment was repeated to confirm results.
# [2] = system: M. restricta; conditions: M. restricta CBS 7877, agar dilution, pH 5.5, 32° C., up to 14 days; for MIC: 336 h, read-out: Minimal inhibitory concentration (MIC)
# Method: as §1, §2, §3, §4
# [3] = system: M. sympodialis; conditions: up to 14 days; for MIC: 336 h, read-out: Minimal inhibitory concentration (MIC)
# Method: as §1, §2, §3, §4
# [4] = system: M. furfur; conditions: agar dilution, pH 5.5, 32° C., up to 14 days
# Method: as §1, §2, §3, §4
# [5] = CBS7705, 336 h, M. globosa CBS 7705
# [6] = CBS7966, 336 h, M. globosa CBS 7966
# [7] = pH 5.5, M. sympodialis ATCC 42132, pH 5.5, 32° C.
# [8] = pH 5.5, M. sympodialis CBS 7222, pH 5.5, 32° C.
# [9] = pH 5.5, M. sympodialis CBS 7979, pH 5.5, 32° C.
# [10] = pH 5.5, M. sympodialis DSM 6171, pH 5.5, 32° C.
# [11] = M. sympodialis ATCC 42132, pH 5.5, 32° C.
# [12] = M. sympodialis CBS 7222, pH 5.5, 32° C.
# [13] = M. sympodialis CBS 7979, pH 5.5, 32° C.
# [14] = M. sympodialis DSM 6171, pH 5.5, 32° C.
Compound,"MIC ([1]; 336 h, M. globosa PM1)","MIC [1, 5]","MIC [1, 6]",MIC [2],"MIC [3, 7]","MIC [3, 8]","MIC [3, 9]","MIC [3, 10]",Minimal inhibitory concentration (MIC) ([1]; M. globosa CBS 7705),Minimal inhibitory concentration (MIC) ([1]; M. globosa CBS 7966),Minimal inhibitory concentration (MIC) ([1]; M. globosa PM1),Minimal inhibitory concentration (MIC) [2],"Minimal inhibitory concentration (MIC) [3, 11]","Minimal inhibitory concentration (MIC) [3, 12]","Minimal inhibitory concentration (MIC) [3, 13]","Minimal inhibitory concentration (MIC) [3, 14]",Minimal inhibitory concentration (MIC) ([4]; M. furfur CBS 1878),Minimal inhibitory concentration (MIC) ([4]; M. furfur CBS 7019)
"CCCCCCCCC(O)CO (stereo not drawn) [1,2-Decandiol]",8000 µg/mL,8000 µg/mL,8000 µg/mL,1000 µg/mL,1000 µg/mL,1000 µg/mL,2000 µg/mL,4000 µg/mL,–,–,–,–,–,–,–,–,–,–
"CCCCCCCCCCC(O)CO (stereo not drawn) [1,2-Dodecandiol]",40000 µg/mL,40000 µg/mL,40000 µg/mL,8000 µg/mL,2000 µg/mL,4000 µg/mL,4000 µg/mL,4000 µg/mL,–,–,–,–,–,–,–,–,–,–
"CCCCC(O)CO (stereo not drawn) [1,2-Hexandiol]",5000 µg/mL,10000 µg/mL,5000 µg/mL,5000 µg/mL,10000 µg/mL,10000 µg/mL,10000 µg/mL,10000 µg/mL,–,–,–,–,–,–,–,–,–,–
"CCCCCCC(O)CO (stereo not drawn) [1,2-Octandiol]",2000 µg/mL,4000 µg/mL,2000 µg/mL,1000 µg/mL,2000 µg/mL,2000 µg/mL,2000 µg/mL,2000 µg/mL,–,–,–,–,–,–,–,–,–,–
"CCCC(O)CO (stereo not drawn) [1,2-Pentandiol]",10000 µg/mL,20000 µg/mL,10000 µg/mL,10000 µg/mL,20000 µg/mL,20000 µg/mL,20000 µg/mL,20000 µg/mL,–,–,–,–,–,–,–,–,–,–
"OCCCO [1,3-Propandiol]",–,–,–,–,–,–,–,–,80000 ppm,40000 ppm,33000 ppm,33000 ppm,40000 ppm,33000 ppm,80000 ppm,80000 ppm,–,–
CCCCCCCC(=O)OCC(CO)OC(=O)CCCCCCC (stereo not drawn) [3-Hydroxypropyl dicaprylate],–,–,–,–,–,–,–,–,–,8000 ppm,8000 ppm,–,4000 ppm,20000 ppm,20000 ppm,20000 ppm,>20000 ppm,20000 ppm
C=CCCCCCCCCC(=O)OCC(CO)OC(=O)CCCCCCCCC=C (stereo not drawn) [3-Hydroxypropyl diundecylenoate],–,–,–,–,–,–,–,–,–,10000 ppm,10000 ppm,–,–,–,–,–,>20000 ppm,>20000 ppm
